Data on 20 molecules can be found in patent US12054494B2, “Compound with anticancer activity” (KYOWA KIRIN CO., LTD., priority 2018, dated 2024).

The test system of the experiment is SU-DHL-4 cells. Nature of the experiment: Inhibitory effect on cell viability (Cell Counting Kit-8). Format: cell-based. The following applies: Homo sapiens, 72 hours culture with test compound, concentration showing 90% inhibition rate of cell viability. In short, it runs like this: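 SU-DHL-4 cells (2000/well, RPMI1640 with 10% FBS) precultured 18-25 h, then exposed to a 9-step compound dilution series (0.1% DMSO final) for 72 h at 37° C. Viability by CCK-8 absorbance at 450 nm after 2-3 h; IC90 computed from inhibition rate relative to untreated and cell-free wells.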

Take `CCC(=O)N1c2ccccc2[C@H](Nc2ccc(Cc3cnc4n3CCN(C(=O)c3ccc(N[C@@H]5C[C@H](C)N(C(=O)CC)c6ccccc65)cc3)C4)cc2)C[C@@H]1C` [Compound 5q, 1-((2S,4R)-2-Methyl-4-((4-((7-(4-(((2S,4R)-2-methyl-1-propionyl-1,2,3,4-tetrahydroquinolin-4-yl)amino)benzoyl)-5,6,7,8-tetrahydroimidazo[1,2-a]pyrazin-3-yl)methyl)phenyl)amino)-3,4-dihydroquinolin-1(2H)-yl)propan-1-one]: the 90% effect level (IC90) was put at 0.11 nM.
For the molecule `CCC(=O)N1c2ccccc2[C@H](Nc2ccc(CCCC(=O)Nc3ccc(N[C@@H]4C[C@H](C)N(C(=O)CC)c5ccccc54)cc3)cc2)C[C@@H]1C` [Compound 5r, N,4-Bis(4-(((2S,4R)-2-methyl-1-propionyl-1,2,3,4-tetrahydroquinolin-4-yl)amino)phenyl)butanamide], the 90% effect level (IC90) was put at 1.78 nM.
For `CCC(=O)N1c2ccccc2[C@H](Nc2ccc(C(=O)N3CCn4c(C(O)c5ccc(N[C@@H]6C[C@H](C)N(C(=O)CC)c7ccccc76)cc5)cnc4C3)cc2)C[C@@H]1C` (stereo partly drawn) [Compound 6a, 1-((2S,4R)-4-((4-(3-(Hydroxy(4-(((2S,4R)-2-methyl-1-propionyl-1,2,3,4-tetrahydroquinolin-4-yl)amino)phenyl)methyl)-5,6,7,8-tetrahydroimidazo[1,2-a]pyrazine-7-carbonyl)phenyl)amino)-2-methyl-3,4-dihydroquinolin-1(2H)-yl)propan-1-one] the value was 0.89 nM; for `CCC(=O)N1c2ccccc2[C@H](Nc2ccc(NC(=O)CCS(=O)(=O)Nc3ccc(N[C@@H]4C[C@H](C)N(C(=O)CC)c5ccccc54)cc3)cc2)C[C@@H]1C` [Compound 6b, N-(4-(((2S,4R)-2-Methyl-1-propionyl-1,2,3,4-tetrahydroquinolin-4-yl)amino)phenyl)-3-(N-(4-(((2S,4R)-2-methyl-1-propionyl-1,2,3,4-tetrahydroquinolin-4-yl)amino)phenyl)sulfamoyl)propanamide], 0.1 nM; for `CCC(=O)N1c2ccccc2[C@H](Nc2ccc(C(=O)NCCc3cn(-c4ccc(N[C@@H]5C[C@H](C)N(C(=O)CC)c6ccccc65)cc4)nn3)cc2)C[C@@H]1C` [Compound 6c, 4-(((2S,4R)-2-Methyl-1-propionyl-1,2,3,4-tetrahydroquinolin-4-yl)amino)-N-(2-(1-(4-(((2S,4R)-2-methyl-1-propionyl-1,2,3,4-tetrahydroquinolin-4-yl)amino)phenyl)-1H-1,2,3-triazol-4-yl)ethyl)benzamide], 0.83 nM.
The same measure for `CCC(=O)N1c2ccccc2[C@H](Nc2ccc(CN3CC(C(=O)Nc4ccc(N[C@@H]5C[C@H](C)N(C(=O)CC)c6ccccc65)cc4)C3)cc2)C[C@@H]1C` [Compound 6d, 1-(4-(((2S,4R)-2-Methyl-1-propionyl-1,2,3,4-tetrahydroquinolin-4-yl)amino)benzyl)-N-(4-(((2S,4R)-2-methyl-1-propionyl-1,2,3,4-tetrahydroquinolin-4-yl)amino)phenyl)azetidine-3-carboxamide]: 5.08 nM; for `CCC(=O)N1c2ccccc2[C@H](Nc2ccc(NS(=O)(=O)CCNC(=O)c3ccc(N[C@@H]4C[C@H](C)N(C(=O)CC)c5ccccc54)cc3)cc2)C[C@@H]1C` [Compound 6g, 4-(((2S,4R)-2-Methyl-1-propionyl-1,2,3,4-tetrahydroquinolin-4-yl)amino)-N-(2-(N-(4-(((2S,4R)-2-methyl-1-propionyl-1,2,3,4-tetrahydroquinolin-4-yl)amino)phenyl)sulfamoyl)ethyl)benzamide]: 0.31 nM; for `CCC(=O)N1c2ccccc2C(Nc2ccc(NC(=O)C#CCNC(=O)c3ccc(N[C@@H]4C[C@H](C)N(C(=O)CC)c5ccccc54)cc3)cc2)CC1C` (stereo partly drawn) [Compound 6h, 4-(((2S,4R)-2-Methyl-1-propionyl-1,2,3,4-tetrahydroquinolin-4-yl)amino)-N-(4-((4-((2-methyl-1-propionyl-1,2,3,4-tetrahydroquinolin-4-yl)amino)phenyl)amino)-4-oxobut-2-yn-1-yl)benzamide]: 0.003 nM.
The same measure for `CCC(=O)N1c2ccccc2[C@H](Nc2ccc(C(=O)N3CCC(n4cc(-c5ccc(N[C@@H]6C[C@H](C)N(C(=O)CC)c7ccccc76)cc5)cn4)CC3)cc2)C[C@@H]1C` [Compound 6o, 1-((2S,4R)-2-Methyl-4-((4-(1-(1-(4-(((2S,4R)-2-methyl-1-propionyl-1,2,3,4-tetrahydroquinolin-4-yl)amino)benzoyl)piperidin-4-yl)-1H-pyrazol-4-yl)phenyl)amino)-3,4-dihydroquinolin-1(2H)-yl)propan-1-one]: 0.14 nM; for `CCC(=O)N1c2ccccc2[C@H](Nc2ccc(C(=O)N3CCCN(C(=O)c4ccc(N[C@@H]5C[C@H](C)N(C(=O)CC)c6ccccc65)cc4)CC3)cc2)C[C@@H]1C` [Compound 6p, 1,1′-((2S,2′S,4R,4′R)-(((1,4-Diazepane-1,4-dicarbonyl)bis(4,1-phenylene))bis(azanediyl))bis(2-methyl-3,4-dihydroquinoline-4,1(2H)-diyl))bis(propan-1-one)]: 41.5 nM; for `CCC(=O)N1c2ccccc2[C@H](Nc2ccc(C(=O)NCCn3cc(-c4ccc(N[C@@H]5C[C@H](C)N(C(=O)CC)c6ccccc65)cc4)cn3)cc2)C[C@@H]1C` [Compound 6q, 4-(((2S,4R)-2-Methyl-1-propionyl-1,2,3,4-tetrahydroquinolin-4-yl)amino)-N-(2-(4-(4-(((2S,4R)-2-methyl-1-propionyl-1,2,3,4-tetrahydroquinolin-4-yl)amino)phenyl)-1H-pyrazol-1-yl)ethyl)benzamide]: 0.45 nM.
Turning to `CCC(=O)N1c2ccccc2[C@H](Nc2ccc(NC(=O)C3CN(C(=O)N4CCC(N[C@@H]5C[C@H](C)N(C(=O)CC)c6ccccc65)CC4)C3)cc2)C[C@@H]1C` [Compound 10a, N-(4-(((2S,4R)-2-Methyl-1-propionyl-1,2,3,4-tetrahydroquinolin-4-yl)amino)phenyl)-1-(4-(((2S,4R)-2-methyl-1-propionyl-1,2,3,4-tetrahydroquinolin-4-yl)amino)piperidine-1-carbonyl)azetidine-3-carboxamide], the IC90 (usually the concentration needed for an effect of 90%) was determined as 2.4 nM.
Molecule `CCC(=O)N1c2ccccc2[C@H](Nc2ccc(C(=O)NCC#CC(=O)N3CCC(N[C@@H]4C[C@H](C)N(C(=O)CC)c5ccccc54)CC3)cc2)C[C@@H]1C` [Compound 10c, 4-(((2S,4R)-2-Methyl-1-propionyl-1,2,3,4-tetrahydroquinolin-4-yl)amino)-N-(4-(4-(((2S,4R)-2-methyl-1-propionyl-1,2,3,4-tetrahydroquinolin-4-yl)amino)piperidin-1-yl)-4-oxobut-2-yn-1-yl)benzamide] showed an IC90 of 0.13 nM.
For `CCC(=O)N1c2ccccc2[C@H](Nc2ccc(NC(=O)CCCC(=O)Nc3ccc(N[C@@H]4C[C@H](C)N(C(=O)CC)c5ccccc54)nc3)cc2)C[C@@H]1C` [Compound 10k, N^1-(4-(((2S,4R)-2-Methyl-1-propionyl-1,2,3,4-tetrahydroquinolin-4-yl)amino)phenyl)-N^5-(6-(((2S,4R)-2-methyl-1-propionyl-1,2,3,4-tetrahydroquinolin-4-yl)amino)pyridin-3-yl)glutaramide] the value was 0.93 nM; for `CCC(=O)N1c2ccc(F)cc2[C@H](Nc2ccc(C(=O)NCCCNC(=O)c3ccc(N[C@@H]4C[C@H](C)N(C(=O)CC)c5ccc(F)cc54)cc3)cc2)C[C@@H]1C` [Compound 10q, N,N′-(Propane-1,3-diyl)bis(4-(((2S,4R)-6-fluoro-2-methyl-1-propionyl-1,2,3,4-tetrahydroquinolin-4-yl)amino)benzamide)], 9.88 nM.
The same measure for `CCC(=O)N1c2ccc(F)cc2[C@H](Nc2ccc(C(=O)NCCNC(=O)c3ccc(N[C@@H]4C[C@H](C)N(C(=O)CC)c5ccc(F)cc54)cc3)cc2)C[C@@H]1C` [Compound 10r, N,N′-(Ethane-1,2-diyl)bis(4-(((2S,4R)-6-fluoro-2-methyl-1-propionyl-1,2,3,4-tetrahydroquinolin-4-yl)amino)benzamide)]: 9.16 nM.
For `CCC(=O)N1c2ccccc2[C@H](Nc2ccc(-c3nnc(CNC(=O)C4CCN(Cc5cc(O)cc(-c6c(C)noc6C)c5)CC4)o3)cc2)C[C@@H]1C` [Compound 12a, 1-(3-(3,5-Dimethylisoxazol-4-yl)-5-hydroxybenzyl)-N-((5-(4-(((2S,4R)-2-methyl-1-propionyl-1,2,3,4-tetrahydroquinolin-4-yl)amino)phenyl)-1,3,4-oxadiazol-2-yl)methyl)piperidine-4-carboxamide] the value was 1.01 nM; for `CCC(=O)N1c2ccccc2[C@H](Nc2ccc(NC(=O)C3CN(C(=O)C4CCN(Cc5cc(O)cc(-c6c(C)noc6C)c5)CC4)C3)cc2)C[C@@H]1C` [Compound 12b, 1-(1-(3-(3,5-Dimethylisoxazol-4-yl)-5-hydroxybenzyl)piperidine-4-carbonyl)-N-(4-(((2S,4R)-2-methyl-1-propionyl-1,2,3,4-tetrahydroquinolin-4-yl)amino)phenyl)azetidine-3-carboxamide], 4.35 nM; for `CCC(=O)N1c2ccccc2[C@H](Nc2ccc(SCCNC(=O)c3ccc(C4=N[C@@H](CC(=O)OCCN(C)C)c5nnc(C)n5-c5sc(C)c(C)c54)cc3)cc2)C[C@@H]1C` [Compound 13a, 2-(Dimethylamino)ethyl 2-((S)-2,3,9-trimethyl-4-(4-((2-((4-(((2S,4R)-2-methyl-1-propionyl-1,2,3,4-tetrahydroquinolin-4-yl)amino)phenyl)thio)ethyl)carbamoyl)phenyl)-6H-thieno[3,2-f][1,2,4]triazolo[4,3-a][1,4]diazepin-6-yl)acetate], 0.49 nM.
The molecule `CCC(=O)N1c2ccccc2[C@H](Nc2ccc(-c3cnn(CC(=O)Nc4ccc(C5=NCc6nnc(C)n6-c6sc(C)c(C)c65)cc4)c3)cc2)C[C@@H]1C` [Compound 14a, 2-(4-(4-(((2S,4R)-2-Methyl-1-propionyl-1,2,3,4-tetrahydroquinolin-4-yl)amino)phenyl)-1H-pyrazol-1-yl)-N-(4-(2,3,9-trimethyl-6H-thieno[3,2-f][1,2,4]triazolo[4,3-a][1,4]diazepin-4-yl)phenyl)acetamide] came in with an IC90 of 0.04 nM.
